Assay results reported in US11441195B2, “Energetic cancer stem cells (e-CSCs): a new hyper-metabolic and proliferative tumor cell phenotype, driven by mitochondrial energy” (LUNELLA BIOTECH, INC., priority 2018, dated 2022).

Assays:
[1] = tested on: 3D tumor sphere formation; conditions: cited from earlier work
MCF7 monolayers = conditions: after 130 hours of DPI treatment, FIG. 7C
Procedure: The data represents 100,000 cells after 120 hours of DPI treatment.
Vital mitochondrial staining: Cells were trypsinized and re-suspended into a 1×10^6 cell/ml solution in PBS. 10 nM of MitoTracker Deep-Red (Thermo Fisher Scientific) was added for 30 minutes at 37° C. before centrifugation and re-suspension in PBS Ca/Mg for FACS analysis (ATTUNE NxT) or Cell Sorting (SONY SH 800). All subsequent steps were performed in the dark. Data analysis was performed using FlowJo software.

MCF7 cells [2] = experiment: Mammosphere formation assay (3D-spheroids); format: cell-based, human; conditions: for mammosphere formation in MCF7 cells: dose-dependent (0, 50 and 100 nM), FIG. 8A
Procedure: Mammosphere formation assay (for generating 3D-spheroids): A single-cell suspension was prepared using enzymatic, and manual disaggregation (25 gauge needle). […] After 5 days of culture, 3D-spheres >50 μm were counted using an eye piece (“graticule”), and the percentage of cells plated which formed spheres was calculated and is referred to as percent mammosphere formation, and was normalized to one (1=100% MSF). Mammosphere formation efficiency was analyzed in both the “low” and “high” sub-populations of auto-fluorescent cells, generated from either 2D-monolayers (M-L vs. M-H) or 3D-spheroids (S-L vs. S-H). All mammosphere experiments were performed in triplicate, at least 3 times independently.

[3] = tested on: S-H cells (MCF7 3D-spheroids); experiment: S-H cell sub-population in MCF7 3D-spheroids after treatment (auto-fluorescence flow-cytometry); format: cell-based, human; conditions: for change in S-H cells: control to 100 nM, FIG. 8B/8C
Procedure: FIG. 8A is a bar graph showing mammosphere formation in MCF7 cells at various concentrations of DPI, and including Ribociclib at 100 nM. […] Most importantly, e-CSCs derived from 3D-spheroids are highly oxidative and can be effectively targeted with an OXPHOS inhibitor. Non-limiting examples of other OXPHOS inhibitors that may be used in the present approach include atovaquone, irinotecan, sorafenib, niclosamide, and berberine chloride.
Data were analyzed with FlowJo 10.1 software.
For 3D-spheroid suspensions, after 5 days of growth under low-attachment condition, the spheres were collected from six 225 cm2 flasks pre-coated with poly-HEMA and gently centrifuged at 100 g for 5 min. After centrifugation, 1 ml of 0.025% of trypsin was added to the “sphere-pellet” and incubated them at 37° C. for 5 minutes. Using a 25-gauge needle, the sphere-suspension was passed through the syringe 4 times. […] After creating these single-cell suspensions, they were subjected to standard flow-cytometry (using the SONY SH800 Cell Sorter) to isolate the auto-fluorescent cell sub-populations, as indicated above. Examples of flow-cytometry plots are included in the figures, and the gating strategy is shown.

MCF7 cells [4] = conditions: cited from earlier work
[5] = tested on: M-H cells from MCF7 monolayers
[6] = breast cancer patients; cited from earlier work

Compound: Cc1n[nH]c(C)c1Cc1sc2c(c1C(=O)N1C[C@H](O)CO1)c(=O)n(C)c(=O)n2CC(C)C [AR-C155858]
- 3D tumor sphere formation [1]: successfully blocked

Compound: [Cl-].c1ccc2c(c1)[I+]c1ccccc1-2 [DPI, Diphenyleneiodonium chloride]
- mitochondrial mass (MitoTracker) (MCF7 monolayers): increased
- 3D-spheroid formation in MCF7 cells (MCF7 cells [2]): inhibits
- 3D-mammosphere formation (MCF7 cells [2]; 100 nM): almost completely inhibited
- mammosphere formation in MCF7 cells (MCF7 cells [2]): inhibited
- depletion of S-H cells in anchorage-independent single live cells ([3]; 100 nM): ~60%
- change in S-H cells [3]: decreasing
- mitochondrial function (MCF7 cells [4]): selectively inhibits
- toxic side effects (MCF7 cells [4]): without any toxic side effects
- changes in cell viability or apoptosis (MCF7 cells [4]; prior studies): did not induce changes
- metabolic phenotype shift (MCF7 cells [4]; prior studies): shifted the cells towards a more glycolytic phenotype
- increase in the number of M-H cells ([5]; 100 nM DPI, 2D-monolayer cultures, 5-day period): ~7.5 fold
- percentage of M-H cells after treatment ([5]; 5-day period (120 hours), concentration dependent, FIG. 7B): increased

Compound: CN(C)C(=O)c1cc2cnc(Nc3ccc(N4CCNCC4)cn3)nc2n1C1CCCC1 [Ribociclib]
- most common side-effects [6]: neutropenia, anemia and GI-distress
- mammosphere formation in MCF7 cells (MCF7 cells [2]): inhibited
- propagation of S-H cells ([3]; FIGS. 8A-C): effectively inhibits
- change in S-H cells [3]: decreasing

Compound: CCCCC[C@H](CC(=O)NO)C(=O)N[C@H](C(=O)N1CCC[C@H]1CO)C(C)C [actinonin]
- 3D tumor sphere formation [1]: successfully blocked

Compound: CC[C@H]1OC(=O)[C@H](C)[C@@H](O[C@H]2C[C@@](C)(OC)[C@@H](O)[C@H](C)O2)[C@H](C)[C@@H](O[C@@H]2O[C@H](C)C[C@H](N(C)C)[C@H]2O)[C@](C)(O)C[C@@H](C)CN(C)[C@H](C)[C@@H](O)[C@]1(C)O [azithromycin]
- 3D tumor sphere formation [1]: successfully blocked

Compound: COc1nc2ccc(Br)cc2cc1[C@@H](c1ccccc1)[C@@](O)(CCN(C)C)c1cccc2ccccc12 [bedaquiline]
- 3D tumor sphere formation [1]: successfully blocked

Compound: COc1ccc2cc3[n+](cc2c1OC)CCc1cc2c(cc1-3)OCO2 [berberine]
- 3D tumor sphere formation [1]: successfully blocked

Compound: COc1ccc([C@@H]2CC(=O)c3c(O)cc(O[C@@H]4O[C@H](COC(=O)CC(C)(O)CC(=O)O)[C@@H](O)[C@H](O)[C@H]4O[C@@H]4O[C@@H](C)[C@H](O)[C@@H](O)[C@H]4O)cc3O2)cc1O (stereo partly shown) [brutieridin]
- 3D tumor sphere formation [1]: successfully blocked

Compound: C[C@@H]1O[C@@H](O[C@@H]2[C@@H](Oc3cc(O)c4c(c3)O[C@H](c3ccc(O)cc3)CC4=O)O[C@@H](COC(=O)C[C@@](C)(O)CC(=O)O)[C@H](O)[C@H]2O)[C@@H](O)[C@H](O)[C@H]1O [melitidin]
- 3D tumor sphere formation [1]: successfully blocked

Compound: CC[C@H]1/C=C/C=C/C[C@@H](C)[C@H](O)[C@@](C)(O)C(=O)[C@@H](C)[C@H](O)[C@@H](C)C(=O)[C@@H](C)[C@H](O)[C@@H](C)/C=C/C(=O)O[C@@H]2[C@H](C)[C@H](CC1)O[C@]1(CC[C@H](C)[C@H](C[C@@H](C)O)O1)[C@H]2C [oligomycin]
- 3D tumor sphere formation [1]: successfully blocked

Compound: CN(C)c1cc(NC(=O)CNC(C)(C)C)c(O)c2c1C[C@H]1C[C@H]3[C@H](N(C)C)C(O)=C(C(N)=O)C(=O)[C@@]3(O)C(O)=C1C2=O [tigecycline]
- 3D tumor sphere formation [1]: successfully blocked
